Entries after “also recorded” stand apart in the source; their conditions may differ. Like-named read-outs stand apart in the source and are kept apart here.
Columns and labels:
[1] = target: sPLA2 group I; assay: 10-pyrene fluorescence enzyme assay, sPLA2 group I (Lineweaver-Burke / Michaelis-Menton); assay type: biochemical, Naja mossambica; conditions: for Km: without inhibitor 18.80; for Km / Vmax: 5 nM sPLA2, 10-pyrene 2-7 μM, nonlinear regression of Vo; for Vmax: without inhibitor 21.67; for reduction of Vo with varied enzyme concentration: sPLA2 2, 6, 10 nM, CHEC-9 0.1, 1, 10 nM
Procedure: (§1) Purified secreted phospholipase A2 group I from the venom of the Mozambique cobra (Naja mossambica) was obtained from Sigma. Blood was obtained from the trunk of 20 female Sprague Dawley rats (200–250 g) after decapitation, and by venipunture of 14 healthy adult humans of both sexes. Blood samples from 8 additional rats were collected following subcutaneous injections of 100 μg CHEC-9 or DMEM vehicle. These rats were placed in a standard rat restrainer during the collection period and the samples obtained via a tail nick. All specific procedures of this study were approved by both the Institutional Animal Care and Use Committee and by Institutional Review Board of Drexel University College of Medicine. Blood samples were treated with citrate-phosphate-dextrose anticoagulant (1:10, Sigma), and plasma prepared by centrifugation, before freezing at -80° until used in the enzyme assays. For the ex vivo studies, individual plasma samples were pooled from 3–7 rats or 3–5 humans.
(§2) Enzyme assays were conducted at ambient temperature (22–25°) using a Victor 3 fluorescent reader (Perkin Elmer, Nutley NJ). The substrate was 1-Palmitoyl-2-Pyrenedecanoyl Phosphatidylcholine ("10-pyrene", Caymen Chemical, Ann Arbor MI) a substrate for all calcium dependent PLA2s with the exception of cPLA2 and PAF-AH. The substrate (supplied in chloroform) was dried under a nitrogen stream, quickly dissolved in ethanol, and stored at -20° prior to use. Substrate solutions were prepared in reaction buffer consisting of 50 mM tris (pH = 7.4), 0.1 M NaCl, 2 mM CaCl2, 0.25% fatty acid-free albumin (Sigma) and the CHEC-9 peptide at the indicated concentrations. CHEC-9 ([…]) was synthesized by Celtek, (Nashville, TN), purified and cross-linked as described previously, and aliquots stored in tris buffer or DMEM vehicles at -80°. The 10-pyrene substrate forms phospholipids vesicles in aqueous solutions [13], and upon hydrolysis, releases 10-pyrenyldecanoic acid. This product is fluorescent in the presence of albumin and was measured at 350 nm excitation, 405 nm emission. Plasma samples were 20% final concentration in the reaction mixture, and all enzyme reactions were initiated with the addition of the substrate solution to the sPLA2 containing samples. Kinetic parameters including the properties of CHEC-9 were determined by measuring the initial velocities (Vo) of enzyme reactions (within 2 minutes of initiation). […] This rate is proportional to the concentration of active enzyme in the plasma if product formation during this period is linear with respect to time (see Fig. 6). In most experiments, relative fluorescent units (RFU) were converted to product concentration using a pyrenyldecanoic acid standard curve (Molecular Probes, Eugene, OR). […] Individual reactions were carried out in duplicate or triplicate and kinetic curves were produced using 5–6 substrate concentrations, with or without peptide, reacted simultaneously. […] Km and Vmax and r^2 were determined with regression software (Prism) from Graphpad (San Diego, CA).
(§3) The characteristics of CHEC-9 inhibition were determined using both classical characterization of inhibitor types, i.e., the direction of changes in Km and Vmax, and more recent reports that derive consistent relationships between the extent of enzyme inhibition and substrate concentration. […] We have repeated, combined, and rearranged some of their equations below in order to show the calculations used in the present experiments.
(§4) KiNR is the apparent inhibition constant based on inhibition degree and is independent of inhibitor classification. This value varies predictably with substrate concentration for different inhibitor types. It is defined as: […]

[2] = tested on: Human Plasma sPLA2; assay: 10-pyrene fluorescence enzyme assay, human plasma sPLA2 (ex vivo); assay type: biochemical; conditions: for Vmax: without inhibitor 2.07; for Km: without inhibitor 66.52
Procedure: as §1, §2, §3, §4

[3] = tested on: rat plasma sPLA2; assay: 10-pyrene fluorescence enzyme assay, rat plasma sPLA2 (ex vivo); assay type: biochemical, rat (Sprague Dawley)
Procedure: as §1
Enzyme assays were conducted at ambient temperature (22–25°) using a Victor 3 fluorescent reader (Perkin Elmer, Nutley NJ). The substrate was 1-Palmitoyl-2-Pyrenedecanoyl Phosphatidylcholine ("10-pyrene", Caymen Chemical, Ann Arbor MI) a substrate for all calcium dependent PLA2s with the exception of cPLA2 and PAF-AH. The substrate (supplied in chloroform) was dried under a nitrogen stream, quickly dissolved in ethanol, and stored at -20° prior to use. Substrate solutions were prepared in reaction buffer consisting of 50 mM tris (pH = 7.4), 0.1 M NaCl, 2 mM CaCl2, 0.25% fatty acid-free albumin (Sigma) and the CHEC-9 peptide at the indicated concentrations. CHEC-9 ([…]) was synthesized by Celtek, (Nashville, TN), purified and cross-linked as described previously, and aliquots stored in tris buffer or DMEM vehicles at -80°. The 10-pyrene substrate forms phospholipids vesicles in aqueous solutions [13], and upon hydrolysis, releases 10-pyrenyldecanoic acid. This product is fluorescent in the presence of albumin and was measured at 350 nm excitation, 405 nm emission. Plasma samples were 20% final concentration in the reaction mixture, and all enzyme reactions were initiated with the addition of the substrate solution to the sPLA2 containing samples. Kinetic parameters including the properties of CHEC-9 were determined by measuring the initial velocities (Vo) of enzyme reactions (within 2 minutes of initiation). […] Km and Vmax and r^2 were determined with regression software (Prism) from Graphpad (San Diego, CA).
The characteristics of CHEC-9 inhibition were determined using both classical characterization of inhibitor types, i.e., the direction of changes in Km and Vmax, and more recent reports that derive consistent relationships between the extent of enzyme inhibition and substrate concentration. […]

[4] = tested on: sPLA2 group I; assay: native polyacrylamide gel electrophoresis, enzyme migration; design: species or system Naja mossambica; conditions: for sPLA2 band on native gel, with peptide and substrate: 26 μM sPLA2, 40 μM CHEC-9, 560 μM substrate, 2 mM CaCl2, pH 7.4, room temperature 30 min, repeated four times
Procedure: Polyacrylamide gradient gels (5–15%) were run with and without SDS or reducing agents using sPLA2 group I alone or after mixing the enzyme with different combinations of the components of the reaction mixture (or their solvents). Samples prepared for the native gels were 50 μl containing 26 μM sPLA2, 40 μM CHEC-9, 560 μM 1-Palmitoyl-2-Pyrenedecanoyl Phosphatidylcholine (substrate), and 2 mM CaCl2 in 20 mM tris buffer (pH = 7.4), incubated together at room temperature for 30 min. After incubation, the samples were evaporated to 20 μl. The samples were then mixed with sample buffer containing only glycerol and bromophenol blue in 0.1 M tris (pH = 6.8) and loaded onto the gels. Following electrophoresis, the gels were washed, fixed, and stained with silver reagent according to conventional methods. The native gel experiment, using different reactant combinations run side by side (Fig. 3), was repeated four times with the same result.

[5] = tested on: sPLA2; conditions: 100 μg CHEC-9 s.c.
Procedure: as §1, with “For the ex vivo studies, individual plasma samples were pooled from 3–7 rats or 3–5 humans.” left out
Enzyme assays were conducted at ambient temperature (22–25°) using a Victor 3 fluorescent reader (Perkin Elmer, Nutley NJ). […] This product is fluorescent in the presence of albumin and was measured at 350 nm excitation, 405 nm emission. […] Kinetic parameters including the properties of CHEC-9 were determined by measuring the initial velocities (Vo) of enzyme reactions (within 2 minutes of initiation). […] Km and Vmax and r^2 were determined with regression software (Prism) from Graphpad (San Diego, CA).

[6] = tested on: sPLA2
Procedure: as §2, §3

[7] = tested on: cerebral cortex lesions; design: method as in PMID 15684658; conditions: rat, ref [6], cited from earlier work
[8] = CHEC-9 10.0 nM, 20% plasma, 10-pyrene 5–30 μM, pH 7.4, 22–25°
[9] = CHEC-9 50.0 nM, 20% plasma, 10-pyrene 5–30 μM, pH 7.4, 22–25°

With “CHEASAAQC [CHEC-9, nonapeptide CHEC-9 (…), internal fragment of DSEP/Dermcidin/PIF, synthesized by Celtek, purified and cross-linked]” the “KiNR (apparent inhibition constant) vs substrate concentration” value ([1]; 10-pyrene 2-7 μM, 5 nM sPLA2, CHEC-9 0.1, 1.0, 10 nM) was “varied inversely with the substrate concentration; also recorded: overall decline in this value with increasing substrate concentration for each peptide concentration”, the Km ([1]; CHEC-9 0.1 nM, pH 7.4, 22–25°) was 10.8 µM and the Vmax ([1]; CHEC-9 0.1 nM, pH 7.4, 22–25°) was 11.54 nM/min/ng. It also gave a Km ([1]; CHEC-9 1.0 nM, pH 7.4, 22–25°) of 3.4 µM, a Vmax ([1]; CHEC-9 1.0 nM, pH 7.4, 22–25°) of 5.56 nM/min/ng and a Km ([1]; CHEC-9 10.0 nM, pH 7.4, 22–25°) of 2.26 µM. For the same sequence, the Vmax ([1]; CHEC-9 10.0 nM, pH 7.4, 22–25°) was 4.04 nM/min/ng, the “change of Vmax and Km” value ([1]; CHEC-9 0.1-10 nM) was “reduced both the Vmax and Km of the enzyme reaction” and the “effect of CHEC-9 below 10 nM on Vo at 2 nM or 6 nM sPLA2” value ([1]; CHEC-9 lower than 10 nM, 2 nM or 6 nM sPLA2, 6 μM 10-pyrene) was “minimally effective or ineffective at 2 nM or 6 nM sPLA2”. For the same sequence, the “effect of CHEC-9 below 10 nM on Vo at 10 nM sPLA2” value ([1]; CHEC-9 lower than 10 nM, 10 nM sPLA2, 6 μM 10-pyrene) was “produced consistent reductions in reaction velocity when used with 10 nM enzyme”, the Ki ([1]; Group I sPLA2, uncompetitive, Ki = KiNR/(1+(Km/[S])), pH 7.4, 22–25°) was 4.02 ± 1.56 nM and the “effect on Vo at lowest substrate concentrations” value ([1]; lowest substrate concentrations) was “minimally effective, ineffective, or even potentiated Vo”. For the same sequence, the “velocity of the enzyme reaction (Vo)” value ([1]; nanomolar CHEC-9, substrate one-half Km or less) was “reduced by nanomolar concentrations of CHEC-9”, the “reduction of Vo with varied enzyme concentration” value ([1]; 6 μM 10-pyrene) was “maximal reductions of Vo occurred at 10 nM sPLA2” and the “reduction of Vo with varied enzyme concentration” value ([1]; 6 μM 10-pyrene, listed as peptide) was “most effective at the highest concentration of sPLA2, and showed declining efficacy at the lower enzyme concentrations”. The “type of inhibition, sPLA2 group I” value ([1]; substrate at one-half Km or less) was “most consistent with an uncompetitive (or anti-competitive) inhibitor of sPLA2 group I”, the “type of inhibition, human plasma” value ([2]; 20% plasma, 10-pyrene 5–30 μM) was “consistent with the properties of an uncompetitive inhibitor” and the Vmax [2, 8] was 1.42 μM/min/ml. For the same sequence, the Km [2, 8] was 40.8 µM, the Vmax [2, 9] was 0.973 μM/min/ml and the Km [2, 9] was 24.1 µM. For the same sequence, the “change of Km and Vmax, human plasma” value ([2]; CHEC-9 10, 50 nM, 20% plasma) was “Km and Vmax of plasma samples were both reduced by CHEC-9”, the Ki ([2]; Human plasma sPLA2, 20% plasma, uncompetitive, Ki = KiNR/(1+(Km/[S])), pH 7.4, 22–25°) was 62 ± 13.2 nM and the “effect on enzyme activity at lowest substrate concentrations, human plasma” value ([2]; CHEC-9 10, 50 nM) was “less effective or even exaggerated the reaction at the lower substrate concentrations”. The “effect on enzyme activity at lowest substrate concentrations, human plasma” value ([2]; CHEC-9 10, 50 nM, listed as peptide) was “exaggerated enzyme activity in human plasma at the lowest substrate concentrations used”, the “inhibition with increased substrate concentrations, rat plasma” value ([3]; 25 nM CHEC-9, 20% plasma, increased substrate, mean of three reactions) was “this delay of the inhibition is not detected” and the “inhibition at very low substrate concentrations, rat plasma” value ([3]; 25 nM CHEC-9, 20% plasma, very low substrate, mean of three reactions) was “delayed inhibition at the lower substrate concentrations”. For the same sequence, the “inhibition at lower substrate concentrations, rat plasma” value ([3]; lower substrate concentrations, product formation relatively stable) was “inhibition by CHEC-9 was readily observed”, the “effect at high substrate concentrations (substrate inhibition), rat plasma” value ([3]; substrate > 25 μM) was “would sometimes reverse this inhibitory effect” and the “sPLA2 band on native gel, with peptide and substrate” value [4] was “absent or at least dramatically reduced”. For the same sequence, the “sPLA2 band on native gel, with peptide and substrate” value ([4]; listed as peptide) was “disappeared or was markedly attenuated”, the “sPLA2 band on native gel, peptide alone” value ([4]; 26 μM sPLA2, 40 μM CHEC-9, no substrate, pH 7.4, room temperature 30 min) was “The same band appeared” and the “level of active sPLA2 vs pre-injection” value ([5]; restrained rats, n = 4, on average) was “holding the level of active enzyme, on average, near pre-injection values”. For the same sequence, the “significance of sPLA2 reduction vs vehicle” value ([5]; p < 0.05 by Mann Whitney test, n = 4 rats per group) was “significant differences at 30 and 60 minutes”, the specificity ([6]; plasma and venom-derived sPLA2) was “broad specificity” and the Ki ([6]; read-out: Ki (individual experiments), individual experiments repeated 5 or more times, pH 7.4, 22–25°) was under 100 nM. The Ki ([6]; read-out: Ki values (all cases), venom-derived sPLA2 group I and plasma of rats and humans) was under 100 nM, the “type of inhibition (all enzyme sources)” value ([6]; venom-derived sPLA2 group I, plasma of rats and humans) was “uncompetitive (or anti-competitive) enzyme inhibitor” and the “duration of anti-inflammatory and neuron survival effects” value ([7]; a subcutaneous injection after cerebral cortex lesions) was “at least 4 days”. For the same sequence, the “anti-inflammatory and neuron survival effects” value ([7]; subcutaneous injection after cerebral cortex lesions) was “inhibit neuron death and aspects of the inflammatory response; also recorded: anti-inflammatory and neuron survival effects”.
